Reference: the kinase profiling compilation of Christmann-Franck et al. (2016)

How the values were obtained:
Assay in all cases: KINOMEscan competition binding
Conditions in all cases: compound 10.0 µM
NTRK1 (human) = NTRK1 (human) (UniProt P04629)
PDGFRA (human) = PDGFRA (human) (UniProt P16234)
RIPK2 (human) = RIPK2 (human) (UniProt O43353)
MAPK15 (human) = MAPK15 (human) (UniProt Q8TD08)
IKBKE (human) = IKBKE (human) (UniProt Q14164)
MAP2K4 (human) = MAP2K4 (human) (UniProt P45985)
PHKG1 (human) = PHKG1 (human) (UniProt Q16816)
PRKCD (human) = PRKCD (human) (UniProt Q05655)
MELK (human) = MELK (human) (UniProt Q14680)
ACVRL1 (human) = ACVRL1 (human) (UniProt P37023)
CSK (human) = CSK (human) (UniProt P41240)
[1] = molecular target: JAK3 JH1 catalytic (human) (UniProt P52333)
NEK7 (human) = NEK7 (human) (UniProt Q8TDX7)
IGF1R (human) = IGF1R (human) (UniProt P08069)
MST4 (human) = MST4 (human) (UniProt Q9P289)
STK36 (human) = STK36 (human) (UniProt Q9NRP7)
TLK1 (human) = TLK1 (human) (UniProt Q9UKI8)
PAK7 (human) = PAK7 (human) (UniProt Q9P286)
PIK3CB (human) = PIK3CB (human) (UniProt P42338)
STK3 (human) = STK3 (human) (UniProt Q13188)
[2] = molecular target: JAK1 JH2 pseudokinase (human) (UniProt P23458)
BRSK2 (human) = BRSK2 (human) (UniProt Q8IWQ3)
PIK3C2B (human) = PIK3C2B (human) (UniProt O00750)
TEK (human) = TEK (human) (UniProt Q02763)
FGR (human) = FGR (human) (UniProt P09769)
WEE1 (human) = WEE1 (human) (UniProt P30291)
TNIK (human) = TNIK (human) (UniProt Q9UKE5)
ERBB4 (human) = ERBB4 (human) (UniProt Q15303)
[3] = molecular target: JAK2 JH1 catalytic (human) (UniProt O60674)
NEK6 (human) = NEK6 (human) (UniProt Q9HC98)
AKT1 (human) = AKT1 (human) (UniProt P31749)
INSR (human) = INSR (human) (UniProt P06213)
PRKG2 (human) = PRKG2 (human) (UniProt Q13237)
MAPK6 (human) = MAPK6 (human) (UniProt Q16659)
CDC42BPG (human) = CDC42BPG (human) (UniProt Q6DT37)
RAF1 (human) = RAF1 (human) (UniProt P04049)
PRKCQ (human) = PRKCQ (human) (UniProt Q04759)
NUAK1 (human) = NUAK1 (human) (UniProt O60285)
ACVR2A (human) = ACVR2A (human) (UniProt P27037)
ZAP70 (human) = ZAP70 (human) (UniProt P43403)

Sequence of PHKG1 (human) (Q16816 whole entry, looked up): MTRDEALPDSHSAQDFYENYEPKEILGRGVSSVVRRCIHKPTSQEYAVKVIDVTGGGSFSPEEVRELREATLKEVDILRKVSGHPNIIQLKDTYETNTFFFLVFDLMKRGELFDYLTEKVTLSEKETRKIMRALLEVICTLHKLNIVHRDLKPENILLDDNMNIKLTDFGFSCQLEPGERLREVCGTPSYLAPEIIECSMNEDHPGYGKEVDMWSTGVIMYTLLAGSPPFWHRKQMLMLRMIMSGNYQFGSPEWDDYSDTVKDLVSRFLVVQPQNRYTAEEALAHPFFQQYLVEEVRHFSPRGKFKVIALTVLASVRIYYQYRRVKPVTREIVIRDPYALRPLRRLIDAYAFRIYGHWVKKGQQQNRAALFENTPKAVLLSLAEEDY
Sequence of MAPK15 (human) (Q8TD08 whole entry, looked up): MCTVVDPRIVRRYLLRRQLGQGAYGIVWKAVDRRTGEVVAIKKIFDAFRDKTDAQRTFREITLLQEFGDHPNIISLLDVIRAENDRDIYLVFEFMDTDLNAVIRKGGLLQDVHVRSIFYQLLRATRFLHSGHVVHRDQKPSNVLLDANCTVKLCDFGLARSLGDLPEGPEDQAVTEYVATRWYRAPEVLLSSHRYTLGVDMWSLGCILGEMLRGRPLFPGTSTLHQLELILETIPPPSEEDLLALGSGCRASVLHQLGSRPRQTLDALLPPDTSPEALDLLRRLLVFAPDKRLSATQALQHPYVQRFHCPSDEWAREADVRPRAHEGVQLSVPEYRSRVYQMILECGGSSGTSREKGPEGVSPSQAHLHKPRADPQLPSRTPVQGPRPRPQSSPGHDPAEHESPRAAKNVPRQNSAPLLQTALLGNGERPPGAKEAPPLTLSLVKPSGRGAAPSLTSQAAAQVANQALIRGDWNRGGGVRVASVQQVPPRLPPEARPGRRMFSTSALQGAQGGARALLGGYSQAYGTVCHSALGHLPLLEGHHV
Sequence of PRKG2 (human) (Q13237 whole entry, looked up): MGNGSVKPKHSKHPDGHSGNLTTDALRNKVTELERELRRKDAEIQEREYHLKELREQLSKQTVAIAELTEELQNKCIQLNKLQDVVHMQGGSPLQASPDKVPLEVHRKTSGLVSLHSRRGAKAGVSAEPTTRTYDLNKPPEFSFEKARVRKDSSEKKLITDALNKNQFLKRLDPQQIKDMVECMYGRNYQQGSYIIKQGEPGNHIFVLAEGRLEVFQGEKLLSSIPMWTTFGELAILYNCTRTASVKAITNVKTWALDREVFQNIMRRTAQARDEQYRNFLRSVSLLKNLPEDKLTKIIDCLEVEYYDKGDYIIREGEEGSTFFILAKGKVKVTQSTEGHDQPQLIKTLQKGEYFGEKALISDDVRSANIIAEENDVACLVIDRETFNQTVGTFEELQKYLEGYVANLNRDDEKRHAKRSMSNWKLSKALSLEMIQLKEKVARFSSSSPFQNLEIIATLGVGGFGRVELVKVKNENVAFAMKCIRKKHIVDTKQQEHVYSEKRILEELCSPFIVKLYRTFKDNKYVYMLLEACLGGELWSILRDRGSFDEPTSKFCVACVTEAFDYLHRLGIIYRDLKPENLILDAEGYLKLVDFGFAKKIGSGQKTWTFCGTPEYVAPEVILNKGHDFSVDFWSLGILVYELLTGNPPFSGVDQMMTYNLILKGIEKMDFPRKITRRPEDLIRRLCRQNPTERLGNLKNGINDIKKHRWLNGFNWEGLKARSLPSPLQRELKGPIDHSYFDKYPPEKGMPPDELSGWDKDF
Sequence of STK36 (human) (Q9NRP7 whole entry, looked up): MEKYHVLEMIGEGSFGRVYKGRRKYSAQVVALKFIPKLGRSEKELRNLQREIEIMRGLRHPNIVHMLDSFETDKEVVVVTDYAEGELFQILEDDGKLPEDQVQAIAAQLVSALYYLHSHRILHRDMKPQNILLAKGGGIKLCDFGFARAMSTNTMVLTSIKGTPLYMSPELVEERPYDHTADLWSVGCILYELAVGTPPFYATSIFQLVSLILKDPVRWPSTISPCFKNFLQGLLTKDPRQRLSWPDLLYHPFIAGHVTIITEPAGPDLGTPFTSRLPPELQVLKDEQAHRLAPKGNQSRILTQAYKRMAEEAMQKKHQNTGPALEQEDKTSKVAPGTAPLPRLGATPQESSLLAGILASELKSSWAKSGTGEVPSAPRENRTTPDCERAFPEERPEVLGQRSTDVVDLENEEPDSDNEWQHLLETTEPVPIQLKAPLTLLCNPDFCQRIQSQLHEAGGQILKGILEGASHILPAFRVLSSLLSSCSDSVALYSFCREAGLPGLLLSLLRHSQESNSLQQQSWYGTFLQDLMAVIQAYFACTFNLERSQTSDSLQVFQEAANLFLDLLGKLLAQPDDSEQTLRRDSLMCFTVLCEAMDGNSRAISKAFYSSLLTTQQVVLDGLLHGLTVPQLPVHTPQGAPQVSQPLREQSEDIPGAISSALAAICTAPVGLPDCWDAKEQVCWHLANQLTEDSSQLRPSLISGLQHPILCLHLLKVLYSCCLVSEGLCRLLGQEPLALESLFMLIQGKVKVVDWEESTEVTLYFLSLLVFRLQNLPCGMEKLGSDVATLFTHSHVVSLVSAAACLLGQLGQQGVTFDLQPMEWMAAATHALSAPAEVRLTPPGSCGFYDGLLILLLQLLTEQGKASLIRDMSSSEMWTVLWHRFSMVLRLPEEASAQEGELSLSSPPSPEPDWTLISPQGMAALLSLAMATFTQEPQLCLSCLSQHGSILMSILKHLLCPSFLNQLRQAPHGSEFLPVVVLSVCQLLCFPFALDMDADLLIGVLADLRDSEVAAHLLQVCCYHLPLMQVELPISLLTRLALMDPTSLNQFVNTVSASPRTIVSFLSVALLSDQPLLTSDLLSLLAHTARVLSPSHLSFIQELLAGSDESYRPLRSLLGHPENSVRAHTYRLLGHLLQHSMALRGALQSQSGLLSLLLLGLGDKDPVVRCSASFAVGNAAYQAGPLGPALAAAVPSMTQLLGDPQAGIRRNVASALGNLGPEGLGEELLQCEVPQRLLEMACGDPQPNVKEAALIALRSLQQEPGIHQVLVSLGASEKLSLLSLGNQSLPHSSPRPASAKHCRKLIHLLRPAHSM
Sequence of AKT1 (human) (P31749 whole entry, looked up): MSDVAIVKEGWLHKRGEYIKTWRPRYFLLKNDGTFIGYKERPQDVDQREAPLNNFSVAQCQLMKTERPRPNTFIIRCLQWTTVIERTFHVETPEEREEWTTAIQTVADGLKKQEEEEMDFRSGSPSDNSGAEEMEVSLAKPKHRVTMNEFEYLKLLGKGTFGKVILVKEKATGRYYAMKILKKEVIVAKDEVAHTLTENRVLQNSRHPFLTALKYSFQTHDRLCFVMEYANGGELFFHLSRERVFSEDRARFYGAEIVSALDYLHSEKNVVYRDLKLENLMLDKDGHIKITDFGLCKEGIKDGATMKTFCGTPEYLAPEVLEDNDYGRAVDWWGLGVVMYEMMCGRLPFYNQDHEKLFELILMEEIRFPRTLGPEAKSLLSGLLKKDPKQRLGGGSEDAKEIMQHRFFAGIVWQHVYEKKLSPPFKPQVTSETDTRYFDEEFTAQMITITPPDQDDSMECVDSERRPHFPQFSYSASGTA
Sequence of IKBKE (human) (Q14164 whole entry, looked up): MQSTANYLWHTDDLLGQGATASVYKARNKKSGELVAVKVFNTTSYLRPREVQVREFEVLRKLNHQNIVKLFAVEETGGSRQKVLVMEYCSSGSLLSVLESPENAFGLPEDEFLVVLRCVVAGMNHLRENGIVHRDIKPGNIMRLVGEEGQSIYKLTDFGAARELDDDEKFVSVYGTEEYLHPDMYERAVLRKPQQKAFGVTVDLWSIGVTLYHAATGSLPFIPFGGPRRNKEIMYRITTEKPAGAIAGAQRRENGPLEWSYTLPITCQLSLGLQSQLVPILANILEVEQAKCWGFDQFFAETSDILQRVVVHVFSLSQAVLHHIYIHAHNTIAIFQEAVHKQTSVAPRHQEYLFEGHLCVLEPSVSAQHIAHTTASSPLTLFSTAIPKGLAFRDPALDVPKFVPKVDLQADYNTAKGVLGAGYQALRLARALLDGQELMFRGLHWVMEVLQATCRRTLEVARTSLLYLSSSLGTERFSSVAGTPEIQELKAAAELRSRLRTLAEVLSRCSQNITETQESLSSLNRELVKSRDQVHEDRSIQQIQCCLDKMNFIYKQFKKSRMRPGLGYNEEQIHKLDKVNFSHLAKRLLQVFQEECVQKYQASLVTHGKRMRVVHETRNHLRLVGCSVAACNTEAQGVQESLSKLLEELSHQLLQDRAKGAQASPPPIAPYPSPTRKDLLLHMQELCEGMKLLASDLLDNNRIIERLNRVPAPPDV
Sequence of NEK6 (human) (Q9HC98 whole entry, looked up): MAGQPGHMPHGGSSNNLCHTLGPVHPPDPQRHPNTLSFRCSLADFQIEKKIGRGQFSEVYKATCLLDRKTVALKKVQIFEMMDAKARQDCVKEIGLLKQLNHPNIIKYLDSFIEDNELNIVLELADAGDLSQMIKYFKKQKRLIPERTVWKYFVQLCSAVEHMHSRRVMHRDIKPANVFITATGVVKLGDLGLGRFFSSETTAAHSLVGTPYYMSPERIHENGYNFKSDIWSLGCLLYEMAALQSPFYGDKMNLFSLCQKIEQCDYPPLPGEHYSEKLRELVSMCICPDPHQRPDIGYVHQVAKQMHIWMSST
Sequence of STK3 (human) (Q13188 whole entry, looked up): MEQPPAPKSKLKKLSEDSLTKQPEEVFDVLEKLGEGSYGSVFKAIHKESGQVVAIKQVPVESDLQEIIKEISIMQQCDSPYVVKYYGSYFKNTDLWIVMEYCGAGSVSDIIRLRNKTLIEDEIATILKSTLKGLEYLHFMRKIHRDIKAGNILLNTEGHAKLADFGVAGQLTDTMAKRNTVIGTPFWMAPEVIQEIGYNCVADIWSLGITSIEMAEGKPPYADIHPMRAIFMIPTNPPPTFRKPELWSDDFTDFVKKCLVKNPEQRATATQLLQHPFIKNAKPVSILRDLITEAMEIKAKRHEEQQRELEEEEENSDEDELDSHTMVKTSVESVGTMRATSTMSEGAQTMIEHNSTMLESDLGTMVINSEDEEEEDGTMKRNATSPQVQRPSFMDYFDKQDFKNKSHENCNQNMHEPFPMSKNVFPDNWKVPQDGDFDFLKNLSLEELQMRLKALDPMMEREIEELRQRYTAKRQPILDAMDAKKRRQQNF

Row | Structure (SMILES) | kinase still bound, per cent of control (NTRK1 (human)) | kinase still bound, per cent of control (PDGFRA (human)) | kinase still bound, per cent of control (RIPK2 (human)) | kinase still bound, per cent of control (MAPK15 (human)) | kinase still bound, per cent of control (IKBKE (human)) | kinase still bound, per cent of control (MAP2K4 (human)) | kinase still bound, per cent of control (PHKG1 (human)) | kinase still bound, per cent of control (PRKCD (human)) | kinase still bound, per cent of control (MELK (human)) | kinase still bound, per cent of control (ACVRL1 (human)) | kinase still bound, per cent of control (CSK (human)) | kinase still bound, per cent of control [1] | kinase still bound, per cent of control (NEK7 (human)) | kinase still bound, per cent of control (IGF1R (human)) | kinase still bound, per cent of control (MST4 (human)) | kinase still bound, per cent of control (STK36 (human)) | kinase still bound, per cent of control (TLK1 (human)) | kinase still bound, per cent of control (PAK7 (human)) | kinase still bound, per cent of control (PIK3CB (human)) | kinase still bound, per cent of control (STK3 (human)) | further results
1 | COc1cc(N2CCN(C)CC2)ccc1Nc1nc(N)c(C(=O)c2c(Cl)cccc2Cl)s1 | 62% | 84% | 70% | 84% | 87% | 70% | 82% | 68% | 100% | 84% | 90% | 100% | 100% | 72% | 100% | 100% | 86% | 63% | 100% | 85% | kinase still bound, per cent of control [2]: 100%; kinase still bound, per cent of control (BRSK2 (human)): 87%; kinase still bound, per cent of control (PIK3C2B (human)): 98%; kinase still bound, per cent of control (TEK (human)): 88%; kinase still bound, per cent of control (FGR (human)): 93%; kinase still bound, per cent of control (WEE1 (human)): 100%; kinase still bound, per cent of control (TNIK (human)): 69%; kinase still bound, per cent of control (ERBB4 (human)): 100%; kinase still bound, per cent of control [3]: 80%; kinase still bound, per cent of control (NEK6 (human)): 100%; kinase still bound, per cent of control (AKT1 (human)): 100%; kinase still bound, per cent of control (INSR (human)): 94%; kinase still bound, per cent of control (PRKG2 (human)): 74%; kinase still bound, per cent of control (MAPK6 (human)): 100%; kinase still bound, per cent of control (CDC42BPG (human)): 100%; kinase still bound, per cent of control (RAF1 (human)): 100%; kinase still bound, per cent of control (PRKCQ (human)): 54%; kinase still bound, per cent of control (NUAK1 (human)): 100%
2 | CCOc1cc2ncc(C#N)c(Nc3ccc(OCc4ccccn4)c(Cl)c3)c2cc1NC(=O)/C=C/CN(C)C | 77% | 100% | 98% | 100% | 100% | 72% | 92% | 100% | 55% | 100% | 13% | 100% | 100% | 100% | 2% | 69% | 86% | 72% | 100% | 1.4% | kinase still bound, per cent of control (ACVR2A (human)): 100%; kinase still bound, per cent of control (ZAP70 (human)): 87%; kinase still bound, per cent of control [2]: 100%; kinase still bound, per cent of control (BRSK2 (human)): 100%; kinase still bound, per cent of control (PIK3C2B (human)): 100%; kinase still bound, per cent of control (TEK (human)): 56%; kinase still bound, per cent of control (FGR (human)): 40%; kinase still bound, per cent of control (WEE1 (human)): 57%; kinase still bound, per cent of control (TNIK (human)): 6%; kinase still bound, per cent of control (ERBB4 (human)): 0%; kinase still bound, per cent of control (NEK6 (human)): 88%; kinase still bound, per cent of control (AKT1 (human)): 98%; kinase still bound, per cent of control (INSR (human)): 46%; kinase still bound, per cent of control (PRKG2 (human)): 92%; kinase still bound, per cent of control (MAPK6 (human)): 100%; kinase still bound, per cent of control (CDC42BPG (human)): 100%; kinase still bound, per cent of control (RAF1 (human)): 100%; kinase still bound, per cent of control (PRKCQ (human)): 100%; kinase still bound, per cent of control (NUAK1 (human)): 61%
3 | N#Cc1c(NC(=O)c2cccc3ccccc23)sc2c1CCCC2 | 100% | 89% | 58% | 64% | 100% | 94% | 100% | 100% | 85% | 100% | 95% | 98% | 84% | 76% | 79% | 66% | 76% | 100% | 100% | 91% | kinase still bound, per cent of control (ACVR2A (human)): 69%; kinase still bound, per cent of control (ZAP70 (human)): 87%; kinase still bound, per cent of control [2]: 90%; kinase still bound, per cent of control (BRSK2 (human)): 100%; kinase still bound, per cent of control (PIK3C2B (human)): 100%; kinase still bound, per cent of control (FGR (human)): 100%; kinase still bound, per cent of control (WEE1 (human)): 64%; kinase still bound, per cent of control (TNIK (human)): 100%; kinase still bound, per cent of control (ERBB4 (human)): 100%; kinase still bound, per cent of control [3]: 100%; kinase still bound, per cent of control (NEK6 (human)): 92%; kinase still bound, per cent of control (AKT1 (human)): 94%; kinase still bound, per cent of control (INSR (human)): 100%; kinase still bound, per cent of control (PRKG2 (human)): 86%; kinase still bound, per cent of control (MAPK6 (human)): 86%; kinase still bound, per cent of control (CDC42BPG (human)): 81%; kinase still bound, per cent of control (RAF1 (human)): 100%; kinase still bound, per cent of control (PRKCQ (human)): 86%; kinase still bound, per cent of control (NUAK1 (human)): 77%
